Among the data in ChEMBL document CHEMBL1201862, “PubChem BioAssay data set” (2004) are EC50, IC50 and AC50 values, retold here.

A short description of assay [1]: Luminescence Cell-Based Dose Confirmation HTS to Identify Activators of 5'UTR Stem-Loop Driven Alpha-Synuclein mRNA Translation in H4 Neuroglioblastoma Cells. [Related pubchem assays: 1829 (Project Summary), 1814 (Primary HTS)]. It counts as functional.
A short description of assay [2]: Luminescence Cell-Based Dose Response HTS to Identify Activators of Luciferase Translation or Activity in H4 […] Cells. [Related pubchem assays: 1829 (Project Summary), 1814 (Primary HTS)]. Type of assay: functional.
A further assay concerns H4. In words: Luminescence Cell-Based Dose Response HTS to Identify Activators of 5'UTR Stem-Loop Driven Prion Protein mRNA Translation in H4 Neuroglioblastoma Cells. [Related pubchem assays: 1829 (Project Summary), 1814 (Primary HTS)]. It counts as functional. To be noted: Homo sapiens.
The subject of a further assay is H9c2. The assay is described as follows: cells. It counts as functional, cell-based. To be noted: Rattus norvegicus, H9c2, Myocardium.
For the next assay, the target named is Cytochrome P450 3A4 (Homo sapiens, UniProt P08684).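 Note: CYP3A4 tested as one member of a cytochrome P450 panel screen.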
Chain of Cytochrome P450 3A4 (P08684 whole entry): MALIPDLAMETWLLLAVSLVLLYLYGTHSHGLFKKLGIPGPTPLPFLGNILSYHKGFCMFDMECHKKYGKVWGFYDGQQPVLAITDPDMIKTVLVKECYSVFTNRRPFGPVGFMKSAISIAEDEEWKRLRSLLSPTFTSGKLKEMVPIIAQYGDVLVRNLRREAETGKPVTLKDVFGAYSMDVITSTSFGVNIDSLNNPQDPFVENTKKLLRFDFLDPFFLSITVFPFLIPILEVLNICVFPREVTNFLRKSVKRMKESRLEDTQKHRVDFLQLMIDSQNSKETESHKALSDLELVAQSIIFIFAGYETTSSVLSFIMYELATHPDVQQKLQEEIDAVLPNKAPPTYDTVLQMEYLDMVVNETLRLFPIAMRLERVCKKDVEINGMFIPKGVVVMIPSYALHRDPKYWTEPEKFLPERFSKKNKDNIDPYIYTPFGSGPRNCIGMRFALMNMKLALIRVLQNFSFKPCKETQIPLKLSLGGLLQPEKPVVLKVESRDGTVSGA
Assay [3] has as its target T1, Polyadenylate-binding protein 1 (Homo sapiens, UniProt P11940). In words: MLLE binding blockers, Cy5 peptide tracer – biochemical, fluorescence polarization, Cy5-PAM2 peptide, secondary, miRNA deadenylation inhibitor project, dose response (AID 602260). It counts as functional. To be noted: read-out: IC50_Mean.
For assay [4], the target named is T1, Polyadenylate-binding protein 1. The assay is described as follows: MLLE domain peptide-binding blockers, IC50 – biochemical, fluorescence polarization, FITC-PAM2 peptide, dose response (AID 602259). Type of assay: functional. To be noted: read-out: IC50_Mean.
Another assay deals with Cytochrome P450 2C9 (Homo sapiens, UniProt P11712).
Chain of Cytochrome P450 2C9 (P11712 whole entry): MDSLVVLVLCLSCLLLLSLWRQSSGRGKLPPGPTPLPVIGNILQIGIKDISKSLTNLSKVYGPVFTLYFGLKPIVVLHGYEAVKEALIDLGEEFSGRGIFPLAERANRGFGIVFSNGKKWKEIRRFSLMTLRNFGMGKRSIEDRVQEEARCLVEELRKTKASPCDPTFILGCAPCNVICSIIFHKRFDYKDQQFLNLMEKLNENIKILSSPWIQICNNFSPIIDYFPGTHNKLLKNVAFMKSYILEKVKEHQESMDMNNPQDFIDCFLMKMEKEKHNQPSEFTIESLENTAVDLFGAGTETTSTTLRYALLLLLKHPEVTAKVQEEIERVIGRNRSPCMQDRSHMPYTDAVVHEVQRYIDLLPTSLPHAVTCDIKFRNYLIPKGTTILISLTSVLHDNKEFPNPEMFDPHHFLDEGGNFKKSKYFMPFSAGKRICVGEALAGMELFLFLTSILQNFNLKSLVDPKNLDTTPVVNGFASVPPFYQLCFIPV
A further assay concerns INS1. The assay is described as follows: INS-1E survival protection against cytokine death – cell-based, luminescence, retest, dose response (AID 449756).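 Note: cell death triggered by IL-1 beta plus TNF-alpha plus IFN-gamma mixture; protective hits raise ATP signal compared with cytokine alone wells.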 Type of assay: functional. Particulars: Rattus norvegicus.
For another assay, the target named is Cytochrome P450 2C19 (Homo sapiens, UniProt P33261). The assay is described as follows: Cytochrome panel assay with activity outcomes. Panel member name: p450-cyp2c19 Compounds with AC50 equal or less than 10 uM are considered active. Type of assay: functional. To be noted: read-out: AC50.
Chain of Cytochrome P450 2C19 (P33261 whole entry): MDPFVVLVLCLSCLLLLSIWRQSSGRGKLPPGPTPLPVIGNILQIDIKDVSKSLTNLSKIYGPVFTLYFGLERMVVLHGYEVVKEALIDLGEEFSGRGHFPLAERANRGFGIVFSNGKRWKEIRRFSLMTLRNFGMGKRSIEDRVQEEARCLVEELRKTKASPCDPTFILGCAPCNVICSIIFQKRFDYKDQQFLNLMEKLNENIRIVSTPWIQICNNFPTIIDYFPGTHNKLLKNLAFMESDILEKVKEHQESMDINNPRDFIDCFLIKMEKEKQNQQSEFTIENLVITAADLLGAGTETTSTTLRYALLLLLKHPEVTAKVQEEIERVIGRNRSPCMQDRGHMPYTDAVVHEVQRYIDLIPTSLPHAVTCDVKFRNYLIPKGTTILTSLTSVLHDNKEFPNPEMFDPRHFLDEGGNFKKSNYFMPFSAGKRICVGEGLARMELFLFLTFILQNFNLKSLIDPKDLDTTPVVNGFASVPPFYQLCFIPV
The nature of assay [5]: luciferase reporter signal suppression in cells – H4 neuroglioma cells, luminescence, dose response (AID 1990). Type of assay: functional, cell-based.
In assay [6] the test system is Streptococcus sp. 'group A'. The assay is described as follows: Streptococcus pyogenes SK(-)GAS viability under kanamycin – luminescence, BacTiterGlo, confirmation, counter-screen for streptokinase expression inhibitor project, dose response (AID 1900). It counts as functional, organism-based.
Assay [7] can be described thus: Luminescence Cell-Based Dose Response HTS to Identify Inhibitors of 5'UTR Stem-Loop Driven Prion Protein mRNA Translation in H4 Neuroglioblastoma Cells. [Related pubchem assays: 1827 (Project Summary), 1813 (Primary HTS)]. Type of assay: functional.
Assay [8] can be described thus: alpha-synuclein stem-loop luciferase translation blockers – H4 neuroglioma cells, luminescence, confirmation (AID 1988). Type of assay: functional, cell-based.
Another assay has as its target T2, Streptokinase A (Streptococcus pyogenes serotype M1, UniProt P10520).
T2 sequence (P10520 whole entry): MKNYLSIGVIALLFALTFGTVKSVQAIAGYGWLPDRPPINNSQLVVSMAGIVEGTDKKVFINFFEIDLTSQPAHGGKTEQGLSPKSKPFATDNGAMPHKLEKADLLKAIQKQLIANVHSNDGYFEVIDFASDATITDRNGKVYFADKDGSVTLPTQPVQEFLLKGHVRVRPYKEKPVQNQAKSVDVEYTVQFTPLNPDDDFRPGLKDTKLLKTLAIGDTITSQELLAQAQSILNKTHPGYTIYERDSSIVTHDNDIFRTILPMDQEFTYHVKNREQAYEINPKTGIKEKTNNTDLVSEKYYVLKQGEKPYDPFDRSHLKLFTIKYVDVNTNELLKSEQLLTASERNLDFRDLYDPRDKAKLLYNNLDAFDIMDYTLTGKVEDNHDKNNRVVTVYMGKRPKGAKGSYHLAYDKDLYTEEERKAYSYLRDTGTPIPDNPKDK
In words: viability-normalized secreted streptokinase activity reduction – plasminogen activation absorbance, OD405, dose response (AID 1914).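 Note: secreted streptokinase activity via plasminogen activation per viability signal from cell pellet.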 It counts as functional, Streptococcus pyogenes M1 GAS.

In the next assay the test system is Streptococcus. In words: GAS UMAA2166 growth inhibition – luminescence, BacTiterGlo, counter-screen for streptokinase expression inhibitor project, dose response (AID 1915).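 Note: potency for reduction of bacterial viability or growth.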 It counts as functional, organism-based.
For the next assay, the target named is Cytochrome P450 2D6 (Homo sapiens, UniProt P10635).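 Note: CYP2D6 member of a cytochrome P450 panel assay.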
Chain of Cytochrome P450 2D6 (P10635 whole entry): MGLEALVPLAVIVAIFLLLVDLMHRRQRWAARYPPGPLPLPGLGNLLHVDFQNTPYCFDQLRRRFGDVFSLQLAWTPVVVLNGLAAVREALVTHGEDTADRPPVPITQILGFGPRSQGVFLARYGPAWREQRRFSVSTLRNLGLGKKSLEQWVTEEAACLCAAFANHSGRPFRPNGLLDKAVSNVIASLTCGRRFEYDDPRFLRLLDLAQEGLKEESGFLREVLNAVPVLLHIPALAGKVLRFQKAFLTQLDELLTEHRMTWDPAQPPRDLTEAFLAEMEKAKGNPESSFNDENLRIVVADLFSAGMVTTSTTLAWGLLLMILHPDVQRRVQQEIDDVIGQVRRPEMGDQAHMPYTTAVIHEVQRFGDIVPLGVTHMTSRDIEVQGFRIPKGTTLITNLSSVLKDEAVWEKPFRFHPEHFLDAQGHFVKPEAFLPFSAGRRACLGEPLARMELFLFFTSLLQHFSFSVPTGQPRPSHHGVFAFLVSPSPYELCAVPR
Assay [9] concerns the target T3, Heat shock factor protein 1 (Mus musculus, UniProt P38532).
T3 sequence (P38532 whole entry): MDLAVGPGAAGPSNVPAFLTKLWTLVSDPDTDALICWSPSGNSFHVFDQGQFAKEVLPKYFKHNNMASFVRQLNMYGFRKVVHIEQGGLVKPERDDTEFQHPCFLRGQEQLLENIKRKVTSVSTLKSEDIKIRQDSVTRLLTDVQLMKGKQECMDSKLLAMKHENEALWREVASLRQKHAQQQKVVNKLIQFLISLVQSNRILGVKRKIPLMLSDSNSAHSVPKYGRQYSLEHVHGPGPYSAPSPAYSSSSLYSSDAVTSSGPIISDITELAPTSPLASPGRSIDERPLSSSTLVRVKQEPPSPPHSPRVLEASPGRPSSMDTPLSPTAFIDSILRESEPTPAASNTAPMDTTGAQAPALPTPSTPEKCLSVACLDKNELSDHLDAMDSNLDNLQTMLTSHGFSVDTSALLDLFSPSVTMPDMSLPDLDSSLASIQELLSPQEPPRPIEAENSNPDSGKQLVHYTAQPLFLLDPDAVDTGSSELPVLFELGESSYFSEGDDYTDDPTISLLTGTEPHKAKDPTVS
In words: enhancement of HSF1-driven luciferase signal – cell-based, NIH3T3, luminescence, dose retest, confirmation (AID 435004).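 Note: stress induced by proteasome inhibitor MG132 added 30 min after compound; luciferase reporter driven by HSF1 response element in NIH3T3 cells; actives raise luminescence as potentiators of the MG132 stress response.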 It counts as functional.

SMILES strings stand for the structures. Values joined by “and” are separate entries in the source; they are usually repeats but may differ in a detail not shown here. Equal values may be shown once. Active and inactive are the calls of the source. A value given as a limit tells only on which side of the number the result lay.

T1 sequence (P11940 whole entry, the tested form may be a part): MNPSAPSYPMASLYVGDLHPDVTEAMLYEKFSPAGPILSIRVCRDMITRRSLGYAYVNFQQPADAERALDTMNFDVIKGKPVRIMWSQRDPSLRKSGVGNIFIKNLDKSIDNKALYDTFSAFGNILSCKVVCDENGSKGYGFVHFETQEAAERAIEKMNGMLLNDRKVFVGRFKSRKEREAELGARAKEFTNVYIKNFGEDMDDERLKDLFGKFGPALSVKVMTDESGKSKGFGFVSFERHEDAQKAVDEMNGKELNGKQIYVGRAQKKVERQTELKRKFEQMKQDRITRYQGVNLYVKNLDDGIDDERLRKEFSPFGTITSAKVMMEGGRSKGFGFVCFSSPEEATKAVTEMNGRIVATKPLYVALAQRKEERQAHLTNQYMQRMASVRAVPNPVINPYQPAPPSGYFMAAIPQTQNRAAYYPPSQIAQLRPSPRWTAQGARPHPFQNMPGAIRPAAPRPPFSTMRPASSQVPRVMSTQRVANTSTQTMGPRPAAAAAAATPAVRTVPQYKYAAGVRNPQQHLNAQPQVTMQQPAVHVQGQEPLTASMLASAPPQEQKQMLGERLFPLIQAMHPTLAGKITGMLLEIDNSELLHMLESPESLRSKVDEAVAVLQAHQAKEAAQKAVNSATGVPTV

As to `c1coc(CSc2ncnc3c2oc2ccccc23)c1`, the EC50 is 3.52 µM (active) in assay [1], 4.94 µM (active) in assay [2] and 6.38 µM (active) in the assay with H4.
For `Cc1ccc(C(=O)CSc2nc(O)c3ccccc3n2)cc1`, in the assay on H9c2, the IC50 was > 79 µM (inactive).
Take `NC[C@@H]1O[C@H](C23CC4CC(CC(C4)C2)C3)Cc2c1ccc(O)c2O`: the AC50 at Cytochrome P450 3A4 is 20 µM (inconclusive) and 31.6 µM (inconclusive).
Take `Cc1cccc(C)c1N=C(S)Nc1ccc(Cl)c(Cl)c1`: the IC50 in assay [3] and in [4] was > 66 µM (inactive) each time.
As for `CCCC1c2ccc(C)n2CCN1C(=O)Nc1ccccc1Cl` (configuration not stated), the EC50 in assay [1] is 23 µM (active); in [2] it was 14.2 µM (active); in the assay on H4, > 120 µM (not active).
`Cc1cccc(N(NC(=O)C(C)(C)O)C(=O)c2ccccc2)c1`: the AC50 was 17.8 µM (inconclusive) on Cytochrome P450 3A4 and 39.8 µM (inconclusive) on Cytochrome P450 2C9.
On to `COc1ccc(-c2nc3cnc(N(C)C)nc3n(Cc3cccs3)c2=O)cc1`, for which the AC50 at Cytochrome P450 3A4 is 12.6 µM (inconclusive).
Consider `COc1ccc(CCNc2nc(-c3cccnc3)nc3ccccc23)cc1OC`, for which the IC50 with H9c2 was > 79 µM (inactive).
As for `O=C(CN(Cc1ccco1)Cc1ccco1)Nc1cc(S(=O)(=O)N2CCCCC2)ccc1Cl`, the AC50 in the assay on INS1 was 7.48 µM (active).
On to `O=C1NC2=C(C(=O)CCC2)C(c2ccccc2[N+](=O)[O-])N1` (configuration not stated), for which the IC50 in assay [3] and in assay [4] was > 66 µM (inactive) each time.
Consider `Fc1ccc(N2Cc3ccsc3C=N2)cc1`, for which the EC50 in [1] was 37.1 µM (active); in assay [2], 23.9 µM (active); in the assay on H4, > 120 µM (not active).
On to `C1=C(c2ccccc2)CCN(c2nc3ccccc3n3cnnc23)C1`, for which, in the assay on H9c2, the IC50 was > 79 µM (inactive).
On to `O=C(CSc1nc(O)c2ccccc2n1)N1CCCCC1`, for which, in the assay with H9c2, the IC50 is 10.5 µM (active).
Consider `CO[C@H]1COC(=O)[C@H](C)COC(=O)[C@@H](Cc2ccccc2)NC(=O)C/C=C\[C@H]1C`, for which the AC50 at Cytochrome P450 3A4 is 6.31 µM (inconclusive).
On to `C=C(C)CN1CC[C@@]23c4c5ccc(O)c4O[C@H]2c2[nH]c4ccccc4c2C[C@]3(O)[C@@H]1C5`, for which the AC50 on Cytochrome P450 2C19 is 3.16 µM (inconclusive); on Cytochrome P450 3A4, 31.6 µM (inconclusive).
Turning to `CC(=O)Nc1nc(NC(=O)/C=C/c2ccccc2)n(-c2ccccc2)n1`, the EC50 in [5] is 14.2 µM (active); in assay [6], 2.47 µM (active); in [7], 13.7 µM (active); in assay [8], 15.7 µM (active); on Streptokinase A it was > 150 µM (not active); in the assay with Streptococcus, 33.9 µM (active).
As to `Cc1cc(NC(=O)COC(=O)Cn2[nH]c(=O)c3ccccc3c2=O)c([N+](=O)[O-])cc1C`, in the assay with H9c2, the IC50 was 31.7 µM (inactive).
Regarding `c1ccc(-c2noc(C34CC5CC(CC(C5)C3)C4)n2)nc1`, the EC50 is 0.122 µM (active) in assay [1], 30.3 µM (active) in [2] and 48 µM (active) with H4.
Take `COc1cc(/C=N/NC(=O)c2ccncc2)ccc1OC(=O)c1ccccc1Cl`: the IC50 in the assay with H9c2 was > 79 µM (inactive).
As to `CCOC(=O)c1sc(=S)n(C)c1NC(=O)c1ccccc1Cl`, the IC50 in [3] and in [4] was > 66 µM (inactive) in each case.
In the case of `CC(C)(C)C(=O)NC(Nc1cccc2cccnc12)C(Cl)(Cl)Cl` (configuration not stated), the AC50 is 23.6 µM (active) in the assay on INS1, 15.8 µM (inconclusive) on Cytochrome P450 2D6 and 7.08 µM (inconclusive) at Cytochrome P450 3A4.
Take `COc1ccc(OC)c(NC(=O)CSC2=NCCS2)c1`: the IC50 in assay [3] and in [4] was > 66 µM (inactive) throughout.
Turning to `NN=C(S)Nc1ccc(OC(F)(F)F)cc1`, in the assay on INS1, the AC50 was > 260 µM (inactive).
`CC1(C)CC2=NC(SCC(N)=O)=C(C#N)C3(CCCCC3)C2=C(O)C1`: the IC50 in assay [3] and in assay [4] was > 66 µM (inactive) each time.
As to `CCOC(=O)c1ccc(-c2ccc3ncnc(NCc4csc(C)n4)c3c2)o1`, the IC50 in the assay on H9c2 was > 79 µM (inactive).
In the case of `O=C(NNC(=S)Nc1ccc(Br)cc1Cl)c1ccncc1`, the IC50 in assay [3] and in assay [4] was > 66 µM (inactive) in each case.
Turning to `NCCNS(=O)(=O)c1ccc(N)cc1`, on Cytochrome P450 3A4, the AC50 is 5.01 µM (inconclusive).
As for `CCC(=O)Nc1ccc(-c2ccc(N3CCN(C)CC3)nn2)cc1`, the figures for the EC50 (in assay [1]; in [2]; with H4) were > 120 µM (not active), 15.5 µM (active) and 19.2 µM (active), respectively.
As to `O=C(COC(=O)Cn1[nH]c(=O)c2ccccc2c1=O)NNC(=O)c1ccccc1`, the IC50 in the assay with H9c2 was > 79 µM (inactive).
Take `CN(C)c1ccc(/N=N\c2cccc3ccoc23)cc1`: the AC50 on Cytochrome P450 2D6 is 3.16 µM (inconclusive); at Cytochrome P450 3A4, 3.98 µM (inconclusive).
`O=C(C[C@H]1C/C=C\CC[C@H](Cc2ccc(F)cc2)C(=O)O[C@H](c2ccccc2)CNC1=O)N[C@H](CO)Cc1ccccc1`: the IC50 in the assay on H9c2 is 25.3 µM (active).
With `Cc1cccc(OCCCC(=O)Nc2ccc(N3CCCCC3)cc2)c1`, the concentration at half-maximal activity (AC50) is 0.355 µM (inconclusive) on Cytochrome P450 2C19 and 7.08 µM (inconclusive) at Cytochrome P450 3A4.
With `Oc1cc(O)cc(/C=C\c2ccc(O)c(O)c2)c1`, the AC50 is 20 µM (inconclusive) on Cytochrome P450 3A4 and 31.6 µM (inconclusive) at Cytochrome P450 2C9.
For the compound `Cc1cnc(CNc2ccnc(-c3ccccc3Cl)n2)cn1`, the AC50 was 39.8 µM (inconclusive) at Cytochrome P450 2C19 and 10 µM (inconclusive) at Cytochrome P450 3A4.
Turning to `Cc1noc(C)c1C(=O)N1CCC2(CCCN(c3ccncc3)C2)CC1`, on Cytochrome P450 3A4, the AC50 is 31.6 µM (inconclusive).
On to `COc1cc(/C=N/NC(=O)c2cccnc2)ccc1OC(=O)c1cc(OC)c(OC)c(OC)c1`, for which the AC50 in the assay with INS1 was 1.1 µM (active).
Consider `Cc1ccc(C)c(C(=O)COC(=O)Cn2[nH]c(=O)c3ccccc3c2=O)c1`, for which, in the assay with H9c2, the IC50 was 63.5 µM (inactive).
Take `O=C(/C=C/c1ccco1)N1CCN(c2ncccn2)CC1`: the IC50 in assay [3] and in [4] was > 66 µM (inactive) each time.
As for `O=c1c(-c2ccc3c(c2)OCCO3)coc2c(CN3CCOCC3)c(O)ccc12`, the EC50 in assay [1] is 42.3 µM (active); in [2], 17.7 µM (active); with H4, > 120 µM (not active).
For the compound `COc1ccc(C(C)(C)C)cc1NC(=O)c1cncc(Br)c1`, the results for the AC50 at Cytochrome P450 2C19 and on Cytochrome P450 3A4 were 10 µM (inconclusive) and 11.2 µM (inconclusive), respectively.
As for `O=C(Nc1ccc(C(=O)N2CCOCC2)cc1)c1cnn2c(C(F)F)cc(-c3ccccc3)nc12`, the EC50 in assay [9] is > 260 µM (inactive). For the same compound, the IC50 in the assay on H9c2 was > 79 µM (inactive).
Turning to `Cc1cc2cc(CNC(=O)c3ccc(Br)o3)ccc2n1C`, the IC50 in assay [3] and in assay [4] was > 66 µM (inactive) throughout.
